Measurements from ChEMBL document CHEMBL1671777, “X-ray crystal structure and binding mode analysis of human S-adenosylhomocysteine hydrolase complexed with novel mechanism-based inhibitors, haloneplanocin A analogues” (J Med Chem, 2011).

biological target: Adenosylhomocysteinase (Homo sapiens, UniProt P23526); experiment: Inhibition of human placental AdoHcy hydrolase expressed in Escherichia coli JM109
Sequence (P23526 whole entry): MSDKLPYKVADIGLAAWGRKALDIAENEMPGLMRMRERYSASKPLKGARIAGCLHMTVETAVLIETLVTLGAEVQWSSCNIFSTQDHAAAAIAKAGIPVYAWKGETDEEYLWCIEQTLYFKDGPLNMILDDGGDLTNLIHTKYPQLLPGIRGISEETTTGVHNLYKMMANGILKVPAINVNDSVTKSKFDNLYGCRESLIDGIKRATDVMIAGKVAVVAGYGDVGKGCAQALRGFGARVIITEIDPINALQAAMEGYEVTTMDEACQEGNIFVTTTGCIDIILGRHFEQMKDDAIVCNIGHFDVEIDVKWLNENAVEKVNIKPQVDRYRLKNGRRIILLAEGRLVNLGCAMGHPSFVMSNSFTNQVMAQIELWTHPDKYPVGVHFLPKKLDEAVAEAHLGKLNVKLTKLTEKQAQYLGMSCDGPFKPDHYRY

| Structure (SMILES) | IC50 |
| --- | --- |
| Nc1ncnc2c1ncn2[C@@H]1C(Cl)=C(CO)[C@@H](O)[C@H]1O | 36.5 µM |
| Nc1ncnc2c1ncn2[C@@H]1C(Br)=C(CO)[C@@H](O)[C@H]1O | 60.2 µM |
| Nc1ncnc2c1ncn2[C@@H]1C(I)=C(CO)[C@@H](O)[C@H]1O | > 1000 µM |
| Nc1ncnc2c1ncn2[C@@H]1C(Cl)=C[C@@H](O)[C@H]1O | > 1000 µM |
| Nc1ncnc2c1ncn2[C@@H]1C(Br)=C[C@@H](O)[C@H]1O | > 1000 µM |
| Nc1ncnc2c1ncn2[C@@H]1C(I)=C[C@@H](O)[C@H]1O | > 1000 µM |
| Nc1ncnc2c1ncn2[C@@H]1C=C[C@@H](O)[C@H]1O | 5.83 µM |
| Nc1ncnc2c1ncn2[C@@H]1C(F)=C[C@@H](O)[C@H]1O | 7.67 µM |
| Nc1ncnc2c1ncn2[C@@H]1C=C(CO)[C@@H](O)[C@H]1O [NEOPLANOCIN A] | 0.87 µM |
